In brackets after ≈: the same amount, converted by molar mass. Activity calls are given as the source filed them. The rule behind the calls is not given here.
Key:
Assay type in all cases: functional
[1] = tested on: Pseudomonas aeruginosa; assay: Antibacterial activity against Pseudomonas aeruginosa MTCC 741 assessed as inhibition zones at 300 ug/disk at 37 degC for 24 hr; details: MTCC 741, 24 h, read-out: IZ
[2] = tested on: Caenorhabditis elegans; assay: Nematicidal activity against Caenorhabditis elegans assessed as immobility; details: read-out: LD50 (the source's name)
[3] = tested on: Candida albicans; assay: Antifungal activity against Candida albicans ATCC 10231 assessed as growth inhibition at 37 degC for 48 hr
[4] = tested on: Bacillus subtilis; assay: Antibacterial activity against Bacillus subtilis MTCC 441 assessed as growth arrest at 37 degC for 24 hr; details: MTCC 441, 24 h
[5] = tested on: Trichophyton mentagrophytes; assay: Antifungal activity against Trichophyton mentagrophytes IFO 40996 assessed as growth inhibition at 300 ug/disc at 37 degC for 48 hr; details: IFO 40996, 48 h, read-out: IZ
[6] = tested on: Staphylococcus aureus; assay: Antibacterial activity against Staphylococcus aureus MTCC 96 assessed as inhibition zones at 300 ug/disc at 37 degC for 24 hr; details: MTCC 96, 24 h, read-out: IZ
[7] = tested on: Aspergillus fumigatus; assay: Antifungal activity against Aspergillus fumigatus HIC 6094 assessed as growth inhibition at 300 ug/disc at 37 degC for 48 hr; details: HIC 6094, 48 h, read-out: IZ
[8] = tested on: Chromobacterium violaceum; assay: Antibacterial activity against Chromobacterium violaceum MTCC 2656 assessed as growth arrest at 37 degC for 24 hr; details: MTCC 2656, 24 h
[9] = tested on: Bacillus subtilis; assay: Antibacterial activity against Bacillus subtilis MTCC 441 assessed as inhibition zones at 300 ug/disk at 37 degC for 24 hr; details: MTCC 441, 24 h, read-out: IZ
[10] = tested on: Candida albicans; assay: Antifungal activity against Candida albicans ATCC 10231 assessed as growth inhibition at 300 ug/disk at 37 degC for 48 hr; details: ATCC 10231, 48 h, read-out: IZ
[11] = tested on: Chromobacterium violaceum; assay: Antibacterial activity against Chromobacterium violaceum MTCC 2656 assessed as inhibition zones at 300 ug/disk at 37 degC for 24 hr; details: MTCC 2656, 24 h, read-out: IZ
[12] = tested on: Ditylenchus myceliophagus; assay: Nematicidal activity against Ditylenchus myceliophagus assessed as immobility; details: read-out: LD50 (the source's name)
[13] = tested on: Klebsiella aerogenes; assay: Antibacterial activity against Enterobacter aerogenes MTCC 39 assessed as growth arrest at 37 degC for 24 hr; details: MTCC 39, 24 h
[14] = tested on: Trichophyton rubrum; assay: Antifungal activity against Trichophyton rubrum IFO 9185 assessed as growth inhibition at 37 degC for 48 hr; details: IFO 9185, 48 h
[15] = tested on: Lysinibacillus sphaericus; assay: Antibacterial activity against Lysinibacillus sphaericus MTCC 11 assessed as growth arrest at 37 degC for 24 hr; details: MTCC 11, 24 h
[16] = tested on: Lysinibacillus sphaericus; assay: Antibacterial activity against Lysinibacillus sphaericus MTCC 11 assessed as inhibition zones at 300 ug/disk at 37 degC for 24 hr; details: MTCC 11, 24 h, read-out: IZ
[17] = tested on: Klebsiella aerogenes; assay: Antibacterial activity against Enterobacter aerogenes MTCC 39 assessed as inhibition zones at 300 ug/disk at 37 degC for 24 hr; details: MTCC 39, 24 h, read-out: IZ
[18] = tested on: Staphylococcus aureus; assay: Antibacterial activity against Staphylococcus aureus MTCC 96 assessed as growth arrest at 37 degC for 24 hr; details: MTCC 96, 24 h
[19] = tested on: Trichophyton mentagrophytes; assay: Antifungal activity against Trichophyton mentagrophytes IFO 40996 assessed as growth inhibition at 37 degC for 48 hr; details: IFO 40996, 48 h
[20] = tested on: Aspergillus fumigatus; assay: Antifungal activity against Aspergillus fumigatus HIC 6094 assessed as growth inhibition at 37 degC for 48 hr; details: HIC 6094, 48 h
[21] = tested on: Trichophyton rubrum; assay: Antifungal activity against Trichophyton rubrum IFO 9185 assessed as growth inhibition at 300 ug/disk at 37 degC for 48 hr; details: for zone of inhibition at 300 µg/disc: IFO 9185, 48 h, read-out: IZ
[22] = tested on: Pseudomonas aeruginosa; assay: Antibacterial activity against Pseudomonas aeruginosa MTCC 741 assessed as growth arrest at 37 degC for 24 hr; details: MTCC 741, 24 h

## COc1ccc(Cc2ccc(OC)c(C3SC4C(=NN(c5ccc(Cl)cc5)C4c4ccc(F)cc4)N3c3ccc(C)cc3)c2)cc1C1SC2C(=NN(c3ccc(Cl)cc3)C2c2ccc(F)cc2)N1c1ccc(C)cc1 (stereo not drawn)
[1]
  zone of inhibition at 300 µg/disc: 11 mm
[2]
  LC50: 360 µg/mL (≈ 336 µM)
[3]; ATCC 10231, 48 h
  MBC: 25 µg/mL (≈ 23.3 µM)
  MIC: 12.5 µg/mL (≈ 11.7 µM)
[4]
  MBC: 25 µg/mL (≈ 23.3 µM)
  MIC: 12.5 µg/mL (≈ 11.7 µM)
[5]
  zone of inhibition at 300 µg/disc: 10 mm
[6]
  zone of inhibition at 300 µg/disc: 29 mm
[7]
  zone of inhibition at 300 µg/disc: 11 mm
[8]
  MBC: 25 µg/mL (≈ 23.3 µM)
  MIC: 12.5 µg/mL (≈ 11.7 µM)
[9]
  zone of inhibition at 300 µg/disc: 17 mm
[10]
  zone of inhibition at 300 µg/disc: 13 mm
[11]
  zone of inhibition at 300 µg/disc: 21 mm
[12]
  LC50: 240 µg/mL (≈ 224 µM)
[13]
  MBC: 50 µg/mL (≈ 46.6 µM)
  MIC: 12.5 µg/mL (≈ 11.7 µM)
[14]
  MBC: 12.5 µg/mL (≈ 11.7 µM)
  MIC: 6.25 µg/mL (≈ 5.83 µM)
[15]
  MBC: 25 µg/mL (≈ 23.3 µM)
  MIC: 12.5 µg/mL (≈ 11.7 µM)
[16]
  zone of inhibition at 300 µg/disc: 17 mm
[17]
  zone of inhibition at 300 µg/disc: 18 mm
[18]
  MBC: 25 µg/mL (≈ 23.3 µM)
  MIC: 12.5 µg/mL (≈ 11.7 µM)
[19]
  MBC: 12.5 µg/mL (≈ 11.7 µM)
  MIC: 6.25 µg/mL (≈ 5.83 µM)
[20]
  MBC: 12.5 µg/mL (≈ 11.7 µM)
  MIC: 6.25 µg/mL (≈ 5.83 µM)
[21]
  zone of inhibition at 300 µg/disc: 11 mm
[22]
  MBC: 25 µg/mL (≈ 23.3 µM)
  MIC: 6.25 µg/mL (≈ 5.83 µM)

## COc1ccc(Cc2ccc(OC)c(C3SC4C(=NN(c5ccccc5)C4c4ccc(F)cc4)N3c3ccc(C)cc3)c2)cc1C1SC2C(=NN(c3ccccc3)C2c2ccc(F)cc2)N1c1ccc(C)cc1 (stereo not drawn)
[1]
  zone of inhibition at 300 µg/disc: 18 mm
[2]
  LC50: 670 µg/mL (≈ 668 µM)
[3]
  MBC: inactive
  MIC: inactive
[4]
  MBC: 25 µg/mL (≈ 24.9 µM)
  MIC: 12.5 µg/mL (≈ 12.5 µM)
[5]
  zone of inhibition at 300 µg/disc: 9 mm
[6]
  zone of inhibition at 300 µg/disc: 27 mm
[7]
  zone of inhibition at 300 µg/disc: 10 mm
[8]
  MBC: 25 µg/mL (≈ 24.9 µM)
  MIC: 25 µg/mL (≈ 24.9 µM)
[9]
  zone of inhibition at 300 µg/disc: 14 mm
[10]
  zone of inhibition at 300 µg/disc: 11 mm
[11]
  zone of inhibition at 300 µg/disc: 19 mm
[12]
  LC50: 850 µg/mL (≈ 847 µM)
[13]
  MBC: 25 µg/mL (≈ 24.9 µM)
  MIC: 12.5 µg/mL (≈ 12.5 µM)
[14]
  MBC: 50 µg/mL (≈ 49.8 µM)
  MIC: 25 µg/mL (≈ 24.9 µM)
[15]
  MBC: 50 µg/mL (≈ 49.8 µM)
  MIC: 25 µg/mL (≈ 24.9 µM)
[16]
  zone of inhibition at 300 µg/disc: 16 mm
[17]
  zone of inhibition at 300 µg/disc: 17 mm
[18]
  MBC: 12.5 µg/mL (≈ 12.5 µM)
  MIC: 12.5 µg/mL (≈ 12.5 µM)
[19]
  MBC: 25 µg/mL (≈ 24.9 µM)
  MIC: 25 µg/mL (≈ 24.9 µM)
[20]
  MBC: 25 µg/mL (≈ 24.9 µM)
  MIC: 25 µg/mL (≈ 24.9 µM)
[21]
  inhibition zone (IZ): inactive
[22]
  MBC: 50 µg/mL (≈ 49.8 µM)
  MIC: 12.5 µg/mL (≈ 12.5 µM)

## COc1ccc(N2N=C3C(SC(c4cc(Cc5ccc(OC)c(C6SC7C(=NN(c8ccc(OC)cc8)C7c7ccc(F)cc7)N6c6ccc(C)cc6)c5)ccc4OC)N3c3ccc(C)cc3)C2c2ccc(F)cc2)cc1 (stereo not drawn)
[1]
  zone of inhibition at 300 µg/disc: 18 mm
[2]
  LC50: 870 µg/mL (≈ 818 µM)
[3]; ATCC 10231, 48 h
  MBC: 25 µg/mL (≈ 23.5 µM)
  MIC: 25 µg/mL (≈ 23.5 µM)
[4]
  MBC: 25 µg/mL (≈ 23.5 µM)
  MIC: 25 µg/mL (≈ 23.5 µM)
[5]
  zone of inhibition at 300 µg/disc: 12 mm
[6]
  zone of inhibition at 300 µg/disc: 26 mm
[7]
  zone of inhibition at 300 µg/disc: 15 mm
[8]
  MBC: 12.5 µg/mL (≈ 11.8 µM)
  MIC: 6.25 µg/mL (≈ 5.88 µM)
[9]
  zone of inhibition at 300 µg/disc: 15 mm
[10]
  zone of inhibition at 300 µg/disc: 9 mm
[11]
  zone of inhibition at 300 µg/disc: 17 mm
[12]
  LC50: 950 µg/mL (≈ 893 µM)
[13]
  MBC: 25 µg/mL (≈ 23.5 µM)
  MIC: 25 µg/mL (≈ 23.5 µM)
[14]
  MBC: 12.5 µg/mL (≈ 11.8 µM)
  MIC: 12.5 µg/mL (≈ 11.8 µM)
[15]
  MBC: 50 µg/mL (≈ 47 µM)
  MIC: 50 µg/mL (≈ 47 µM)
[16]
  zone of inhibition at 300 µg/disc: 15 mm
[17]
  zone of inhibition at 300 µg/disc: 20 mm
[18]
  MBC: 25 µg/mL (≈ 23.5 µM)
  MIC: 25 µg/mL (≈ 23.5 µM)
[19]
  MBC: 25 µg/mL (≈ 23.5 µM)
  MIC: 12.5 µg/mL (≈ 11.8 µM)
[20]
  MBC: 50 µg/mL (≈ 47 µM)
  MIC: 25 µg/mL (≈ 23.5 µM)
[21]
  zone of inhibition at 300 µg/disc: 13 mm
[22]
  MBC: 25 µg/mL (≈ 23.5 µM)
  MIC: 12.5 µg/mL (≈ 11.8 µM)

## CNC(=O)O/N=C(\SC)C(=O)N(C)C [OXAMYL]
[2]
  LC50: 180 µg/mL (≈ 821 µM)
[12]
  LC50: 150 µg/mL (≈ 684 µM)

Source: ChEMBL document CHEMBL3045223, “Synthesis, nematicidal and antimicrobial properties of Bis-[4-methoxy-3-[3-(4-fluorophenyl)-6-(4-methylphenyl)-2(aryl)-tetrahydro-2H-pyrazolo[3,4-d]thiazol-5-yl]phenyl]methanes” (2009)
